Common to all, as to assay type: cell-based
In one assay the test system is Shh Light II. Kind of assay: Inhibition of GLI in SAG induced mouse Shh Light II cells assessed as residual Smo-dependent Gli luciferase activity in starvation medium at 100 nM incubated for 30 hrs by dual luciferase assay.
In another assay the test system is Sufu-KO-LIGHT. Kind of assay: Inhibition of GLI in SAG induced mouse Sufu-KO-LIGHT cells assessed as residual Smo-independent Gli luciferase activity in starvation medium at 100 nM incubated for 30 hrs by dual luciferase assay.
Assay [1] can be described thus: Inhibition of GLI in SAG induced mouse Sufu-KO-LIGHT cells assessed as residual Smo-independent Gli luciferase activity in starvation medium incubated for 30 hrs by dual luciferase assay.
The nature of assay [2]: Inhibition of GLI in SAG induced mouse Shh Light II cells assessed as residual Smo-dependent Gli luciferase activity in starvation medium incubated for 30 hrs by dual luciferase assay.
A short description of assay [3]: Inhibition of GLI in SAG induced mouse C3H10T1/2 cells assessed reduction Gli-dependent differentiation by measuring ALP activity incubated for 48 hrs by chemiluminescence assay. The following applies: C3H 10T1/2, 48 h.
Another assay concerns NIH/3T3. Description: Inhibition of GLI in mouse NIH/3T3 cells assessed as reduction in CMV-driven firefly luciferase activity in starvation medium at 100 nM incubated for 30 hrs by Bright-Glo luciferase assay.
The nature of assay [4]: Inhibition of GLI in mouse ASZ001 cells assessed as reduction in cell viability in starvation medium incubated for 48 hrs by CellTiter assay. Particulars: ASZ001, 48 h.
Another assay relates to ASZ001. Description: Inhibition of GLI in mouse ASZ001 cells assessed as reduction in cell viability in starvation medium at 1.5 uM incubated for 48 hrs by CellTiter assay relative to control.

The source of these data is ChEMBL document CHEMBL5120940, “Indolactam Dipeptides as Nanomolar Gli Inhibitors” (ACS Med Chem Lett, 2022).

The source made the active and inactive calls. No cut-off for these calls is given here.

What is called IC50 is the concentration that gives 50% inhibition. `CC(=O)n1cc2c3c(cccc31)N(C)[C@@H](C(C)C)C(=O)N[C@H](CO)C2`: the figures for the Activity with Shh Light II and with Sufu-KO-LIGHT were 73% and 67%, respectively. Besides, the IC50 is 655 nM in assay [1] and 195 nM in assay [2].

Turning to `CC(C)[C@H]1C(=O)N[C@H](CO)Cc2cn(C(C)C)c3cccc(c23)N1C`, the Activity in the assay on Shh Light II worked out at 96%; in the assay on Sufu-KO-LIGHT it was 78%. Also, the IC50 in assay [1] amounted to 464 nM; in assay [2] it was 309 nM.

`CC(C)[C@H]1C(=O)N[C@@H](CO)Cc2c[nH]c3cccc(c23)N1C`: the Activity with Shh Light II amounted to 100%; in the assay with Sufu-KO-LIGHT it was 78%. Besides, the IC50 in assay [1] is 1920 nM; in assay [2], greater than 5000 nM; in assay [3] it was greater than 5000 nM.

Consider `CCC(C)[C@H]1C(=O)N[C@H](CO)Cc2c[nH]c3cccc(c23)N1C` (some centres not stated), for which the Activity with Shh Light II was determined as 53%; in the assay with Sufu-KO-LIGHT it was 36%. Also, the result in the assay with NIH/3T3 was Active. The IC50 in assay [1] came out at 6.8 nM; in assay [2], 33 nM; in assay [3] it was 30 nM.

In the case of `COC(=O)[C@@H]1Cc2c[nH]c3cccc(c23)N(C)[C@@H](C(C)C)C(=O)N1`, the Activity in the assay with Shh Light II came to 99%; in the assay with Sufu-KO-LIGHT, 67%. Besides, the IC50 in assay [1] amounted to 77 nM; in assay [2] it was 3460 nM.

For `CC(C)[C@H]1C(=O)N[C@H](CO)Cc2cc(NC(=O)/C=C/C=C/c3ccc(C(F)(F)F)cc3)ccc2N1C` (stereo in doubt), the half-inhibitory concentration (IC50) in assay [4] was found to be 0.16 nM.

With `COC[C@@H]1Cc2cn(C)c3cccc(c23)N(C)[C@@H](C(C)C)C(=O)N1`, the values for the Activity with Shh Light II and in the assay on Sufu-KO-LIGHT were 86% and 69%, respectively. The values for the IC50 in assay [1] and in assay [2] were 1820 nM and 478 nM, respectively.

For the molecule `C=CC(C)(C)c1ccc2c3c(c[nH]c13)C[C@@H](CO)NC(=O)[C@H](C(C)C)N2C` [PENDOLMYCIN], the Activity came out at 60% in the assay on Shh Light II and 46% with Sufu-KO-LIGHT. Also, the IC50 in assay [1] and in assay [2] was greater than 5000 nM each time.

For the molecule `CC(C)[C@H]1C(=O)N[C@H](CO)Cc2c[nH]c3c(Br)ccc(c23)N1C`, the Activity with Shh Light II was 70%; with Sufu-KO-LIGHT it was 23%. Also, the IC50 in assay [1] is 264 nM; in assay [2] it was 1280 nM.

For the molecule `C=C[C@@](C)(CCC=C(C)C)c1ccc2c3c(c[nH]c13)C[C@@H](CO)NC(=O)[C@H](C(C)C)N2C`, the Activity with Shh Light II was 90%; with Sufu-KO-LIGHT, 47%. Besides, the IC50 in assay [1] and in assay [2] was greater than 5000 nM each time.

For orientation: inhibition means how much of the control response was suppressed. As to `CC(C)[C@H]1C(=O)N[C@H](CO)Cc2c[nH]c3cccc(c23)N1C` [INDOLACTUM], the Activity was 68% in the assay with Shh Light II and 39% in the assay on Sufu-KO-LIGHT. For the same molecule, the result in the assay with NIH/3T3 was Active. Moreover, the inhibition with ASZ001 is 62%. Further, the IC50 in assay [1] stood at 13 nM; in assay [2], 33 nM; in assay [3], 171 nM.

In the case of `CS(=O)(=O)c1ccc(C(=O)Nc2ccc(Cl)c(-c3ccccn3)c2)c(Cl)c1` [VISMODEGIB], the IC50 in assay [4] is 2 nM; in assay [1], greater than 5000 nM; in assay [2], 37 nM; in assay [3] it was 58 nM. Moreover, the Activity in the assay with Shh Light II worked out at 43%; in the assay on Sufu-KO-LIGHT, 96%.

On to `CC(C)[C@H]1C(=O)N[C@H](CO)Cc2cn(C)c3cccc(c23)N1C`, for which the Activity was 66% with Shh Light II and 42% in the assay on Sufu-KO-LIGHT. The outcome in the assay on NIH/3T3 was Active. Also, the IC50 came out at 20 nM in assay [1], 69 nM in assay [2] and 498 nM in assay [3].

As for `CCCCCCn1cc2c3c(cccc31)N(C)[C@@H](C(C)C)C(=O)N[C@H](CO)C2`, the IC50 was found to be 0.5 nM in assay [4], 7.9 nM in assay [1], 113 nM in assay [2] and 27 nM in assay [3]. The Activity is 83% in the assay on Shh Light II and 25% with Sufu-KO-LIGHT. The outcome in the assay with NIH/3T3 was Active. The inhibition in the assay on ASZ001 came to 38%.
